Experimental data as given in patent publication US20260242419A1, “A CYCLIC PEPTIDE FOR TRAPPING INTERLEUKIN-1 BETA” (Merck Sharp & Dohme LLC, priority 2023, published 2026).
Starred links: 1 amine or outer side, 2 acyl side, 3 side chain; linkers in the order of their positions; H or OH if unused. Non-standard residues stand in square brackets, D forms with d. Residues, ends and D or L forms follow the SMILES beside them. Ala(2-carboxypyrimidin-5-yl) = N[C@@H](Cc1cnc(C(=O)O)nc1)C(=O)O; dPro(4R-(4-pyridylmethyl)) = O=C(O)[C@H]1C[C@@H](Cc2ccncc2)CN1; Trp(βS-Me,4-F) = C[C@@H](c1c[nH]c2cccc(F)c12)[C@H](N)C(=O)O; Bip(4'-COOH) = N[C@@H](Cc1ccc(-c2ccc(C(=O)O)cc2)cc1)C(=O)O; dPro(4R-Bzl(4-F)) = O=C(O)[C@H]1C[C@@H](Cc2ccc(F)cc2)CN1; 1Nal(3S-Me) = C[C@@H](c1cccc2ccccc12)[C@H](N)C(=O)O; X4 = O=C([C@H]1[C@@H](Cc2ccncc2)CCN1[*:1])[*:2]; Ala(pyrimidin-5-yl) = N[C@@H](Cc1cncnc1)C(=O)O; Phe(4-COOH) = N[C@@H](Cc1ccc(C(=O)O)cc1)C(=O)O; X44 = CC(=O)N1CCN(C[C@H](N[*:1])C(=O)[*:2])CC1; Bip = N[C@@H](Cc1ccc(-c2ccccc2)cc1)C(=O)O; Pro(cis-4-F) = O=C(O)[C@@H]1C[C@H](F)CN1; d(αMeD) = C[C@@](N)(CC(=O)O)C(=O)O; 4Pal = N[C@@H](Cc1ccncc1)C(=O)O; d3Pal = N[C@H](Cc1cccnc1)C(=O)O; aThr = C[C@H](O)[C@H](N)C(=O)O; NMeDab = CN[C@@H](CCN)C(=O)O; Dab = NCC[C@H](N)C(=O)O; Aib = CC(C)(N)C(=O)O

These compounds were tested against T1, IL-1β (Homo sapiens, UniProt P01584) (assay: IL-6 assay in MRC5 cells: inhibition of IL-1β induced IL-6 secretion (AlphaLISA)). Conditions: inhibition of IL-1β induced IL-6 secretion in MRC5 cells; compound pre-incubated 1 hour with recombinant human IL-1β; read-out: MRC5 IC50.
T1 construct: purchased BioLegend 579404
T1 sequence (P01584 117-269): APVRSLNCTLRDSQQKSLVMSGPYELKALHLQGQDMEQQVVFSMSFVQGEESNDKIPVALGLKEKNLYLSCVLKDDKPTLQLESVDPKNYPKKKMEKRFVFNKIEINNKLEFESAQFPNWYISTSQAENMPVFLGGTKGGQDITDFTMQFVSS
Type: cell-based
How it was run: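 Compound was pre-incubated 1 h at ambient temperature with recombinant human IL-1β at 2λ EC80 before adding human lung fibroblast MRC5 cells (3000/well) in EMEM with 0.025% BSA. After overnight culture at 37 °C, 5% CO2, secreted IL-6 in conditioned medium was measured by AlphaLISA; IC50 from 4-parameter logistic fits.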

Row | IC50 [nM] | SMILES
1 | 0.023 | CC(=O)N1CCN(C[C@@H]2NC(=O)C(C)(C)NC(=O)[C@H](Cc3c[nH]c4ccccc34)NC(=O)[C@H](CCC(=O)O)NC(=O)C(C)(C)NC(=O)[C@H]([C@@H](C)c3c[nH]c4cccc(F)c34)NC(=O)[C@@H]3C[C@H](F)CN3C(=O)CNC(=O)[C@H](Cc3ccc(C(=O)O)cc3)NC(=O)[C@H](Cc3ccncc3)NC(=O)[C@H](Cc3ccc(-c4ccc(C(=O)O)cc4)cc3)NC(=O)[C@H]3C[C@@H](Cc4ccc(F)cc4)CN3C(=O)CNC(=O)[C@H](CO)NC(=O)[C@H](CCC(N)=O)NC2=O)CC1 [Example 271] (cyclo([Bip(4'-COOH)][4Pal][Phe(4-COOH)]G[Pro(cis-4-F)][Trp(βS-Me,4-F)][Aib]EW[Aib][X44]QSG[dPro(4R-Bzl(4-F))]))
2 | 0.018 | C[C@@H](c1c[nH]c2cccc(F)c12)[C@@H]1NC(=O)[C@@H]2C[C@H](F)CN2C(=O)CNC(=O)[C@H](Cc2ccc(C(=O)O)cc2)NC(=O)[C@H](Cc2ccncc2)NC(=O)[C@H](Cc2ccc(-c3ccc(C(=O)O)cc3)cc2)NC(=O)[C@H]2[C@@H](Cc3ccncc3)CCN2C(=O)CNC(=O)[C@H](CCN)N(C)C(=O)[C@H](CCC(N)=O)NC(=O)[C@H](Cc2cncnc2)NC(=O)[C@@](C)(CC(=O)O)NC(=O)[C@H](Cc2c[nH]c3ccccc23)NC(=O)[C@H](CO)NC(=O)C(C)(C)NC1=O [Example 235] (cyclo([Bip(4'-COOH)][4Pal][Phe(4-COOH)]G[Pro(cis-4-F)][Trp(βS-Me,4-F)][Aib]SW[d(αMeD)][Ala(pyrimidin-5-yl)]Q[NMeDab]G[X4]))
3 | 0.019 | C[C@H](O)[C@@H]1NC(=O)[C@@](C)(CC(=O)O)NC(=O)[C@H](Cc2c[nH]c3ccccc23)NC(=O)[C@H](CO)NC(=O)C(C)(C)NC(=O)[C@H]([C@@H](C)c2cccc3ccccc23)NC(=O)[C@@H]2C[C@H](F)CN2C(=O)CNC(=O)[C@H](Cc2ccc(C(=O)O)cc2)NC(=O)[C@H](Cc2ccncc2)NC(=O)[C@H](Cc2ccc(-c3ccccc3)cc2)NC(=O)[C@H]2C[C@@H](Cc3ccncc3)CN2C(=O)CNC(=O)[C@H](CCN)NC(=O)[C@H](CCC(N)=O)NC1=O [Example 288] (cyclo([Bip][4Pal][Phe(4-COOH)]G[Pro(cis-4-F)][1Nal(3S-Me)][Aib]SW[d(αMeD)][aThr]Q[Dab]G[dPro(4R-(4-pyridylmethyl))]))
4 | 0.025 | C[C@@H](c1c[nH]c2cccc(F)c12)[C@@H]1NC(=O)[C@@H]2C[C@H](F)CN2C(=O)CNC(=O)[C@H](Cc2ccc(C(=O)O)cc2)NC(=O)[C@H](Cc2ccncc2)NC(=O)[C@H](Cc2ccc(-c3ccc(C(=O)O)cc3)cc2)NC(=O)[C@H]2[C@@H](Cc3ccncc3)CCN2C(=O)CNC(=O)[C@H](CCN)NC(=O)[C@H](CCC(N)=O)NC(=O)[C@@H](Cc2cccnc2)NC(=O)[C@@](C)(CC(=O)O)NC(=O)[C@H](Cc2c[nH]c3ccccc23)NC(=O)[C@H](CO)NC(=O)C(C)(C)NC1=O [Example 240] (cyclo([Bip(4'-COOH)][4Pal][Phe(4-COOH)]G[Pro(cis-4-F)][Trp(βS-Me,4-F)][Aib]SW[d(αMeD)][d3Pal]Q[Dab]G[X4]))
5 | 0.014 | C[C@@H](c1c[nH]c2cccc(F)c12)[C@@H]1NC(=O)[C@@H]2C[C@H](F)CN2C(=O)CNC(=O)[C@H](Cc2ccc(C(=O)O)cc2)NC(=O)[C@H](Cc2ccncc2)NC(=O)[C@H](Cc2ccc(-c3ccccc3)cc2)NC(=O)[C@H]2C[C@@H](Cc3ccncc3)CN2C(=O)CNC(=O)[C@H](CCN)NC(=O)[C@H](CCC(N)=O)NC(=O)[C@H](Cc2cnc(C(=O)O)nc2)NC(=O)C(C)(C)NC(=O)[C@H](Cc2c[nH]c3ccccc23)NC(=O)[C@H](CO)NC(=O)C(C)(C)NC1=O [Example 269] (cyclo([Bip][4Pal][Phe(4-COOH)]G[Pro(cis-4-F)][Trp(βS-Me,4-F)][Aib]SW[Aib][Ala(2-carboxypyrimidin-5-yl)]Q[Dab]G[dPro(4R-(4-pyridylmethyl))]))

Same assay, conditions: inhibition of IL-1β induced IL-6 secretion in MRC5 cells; read-out: MRC5 IC50

Row | IC50 [nM] | SMILES
6 | 0.014 | CO[C@H](C)[C@@H]1NC(=O)[C@@](C)(CC(=O)O)NC(=O)[C@H](Cc2c[nH]c3ccccc23)NC(=O)[C@H](CO)NC(=O)C(C)(C)NC(=O)[C@H]([C@@H](C)c2c[nH]c3cccc(F)c23)NC(=O)[C@@H]2C[C@H](F)CN2C(=O)CNC(=O)[C@H](Cc2ccc(C(=O)O)cc2)NC(=O)[C@H](Cc2ccncc2)NC(=O)[C@H](Cc2ccc(-c3ccc(C(=O)O)cc3)cc2)NC(=O)[C@H]2[C@@H](Cc3ccncc3)CCN2C(=O)CNC(=O)[C@H](CCN)NC(=O)[C@H](CCC(N)=O)NC1=O [Example 227] (cyclo([Bip(4'-COOH)][4Pal][Phe(4-COOH)]G[Pro(cis-4-F)][Trp(βS-Me,4-F)][Aib]SW[d(αMeD)]T(Me)Q[Dab]G[X4]))
